One assay deals with CLK2 kinase (Homo sapiens, UniProt P49760). Kind of assay: CLK2 kinase activity assay (Z-lyte FRET).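 Further: FRET read-out as coumarin to fluorescein emission ratio, unphosphorylated peptide as 0% and phosphorylated peptide as 100% controls, duplicate reactions, non-linear regression fit of dose-response curves.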 Format: biochemical. The settings on record: Z-lyte Ser/Thr 6 peptide, 60 μM ATP, 1 h at room temperature.
Another assay concerns the target CLK3 kinase (Homo sapiens, UniProt P49761). Description: CLK3 kinase activity assay (Z-lyte FRET).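 Further: kinase activity read as coumarin/fluorescein emission ratio by FRET, unphosphorylated peptide as 0% and phosphorylated peptide as 100% control, values from non-linear regression of dose-response curves.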 The class given is biochemical. Conditions: Z-lyte Ser/Thr 18 peptide, 156 μM ATP, 1 h at room temperature.
Assay [1] has as its system Wnt pathway activity (SW480 colon carcinoma cells stably expressing the Sp5-Luc reporter). Kind of assay: Wnt pathway activity screening assay (Sp5-Luc reporter gene assay). Conditions: Homo sapiens, SW480, Table 4; SW480 cells stably expressing Sp5-Luc reporter, 10-point dose-response from 10 μM, 36 to 48 hours. For orientation: In a reporter assay the amount or activity of a reporter protein is the signal.

The test system of assay [2] is primary human mesenchymal stem cells (hMSCs). Description: Chondrogenesis screening using primary human mesenchymal stem cells. Format: cell-based. The settings on record: Homo sapiens, Mesenchymal stem cells, hMSC chondrogenesis; for EC50: concentration required to induce 50% levels of chondrogenesis with TGF-β3 as positive control, read-out: Conc (nM) of 50% TGF-β3 activity; for Emax: maximum activity relative to TGF-β3 (10 ng/mL) positive control, read-out: Max. Activity as % TGF-β3 activity. In outline:
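Primary hMSCs at passage 3–6 were treated across compound concentrations, with TGF-β3 as positive control. Chondrogenic nodule area per well was normalized to 3 DMSO wells on the same plate (fold over DMSO, 2–3 replicates). EC50, maximum activity and the dose reaching it were derived.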

CLK2 kinase, sequence (P49760 whole entry): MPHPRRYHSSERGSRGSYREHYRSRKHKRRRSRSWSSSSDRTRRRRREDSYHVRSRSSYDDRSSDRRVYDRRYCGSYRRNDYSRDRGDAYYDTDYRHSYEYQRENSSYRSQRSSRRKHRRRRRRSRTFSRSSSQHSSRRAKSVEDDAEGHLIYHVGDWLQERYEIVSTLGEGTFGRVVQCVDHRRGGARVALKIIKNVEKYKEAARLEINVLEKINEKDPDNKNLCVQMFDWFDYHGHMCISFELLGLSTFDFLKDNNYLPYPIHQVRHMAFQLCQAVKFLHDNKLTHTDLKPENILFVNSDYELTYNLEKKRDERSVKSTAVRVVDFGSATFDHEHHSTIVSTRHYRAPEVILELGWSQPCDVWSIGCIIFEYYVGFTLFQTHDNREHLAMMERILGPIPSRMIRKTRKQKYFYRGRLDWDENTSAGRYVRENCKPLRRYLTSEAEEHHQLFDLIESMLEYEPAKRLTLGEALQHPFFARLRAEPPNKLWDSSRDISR
CLK3 kinase, sequence (P49761 whole entry): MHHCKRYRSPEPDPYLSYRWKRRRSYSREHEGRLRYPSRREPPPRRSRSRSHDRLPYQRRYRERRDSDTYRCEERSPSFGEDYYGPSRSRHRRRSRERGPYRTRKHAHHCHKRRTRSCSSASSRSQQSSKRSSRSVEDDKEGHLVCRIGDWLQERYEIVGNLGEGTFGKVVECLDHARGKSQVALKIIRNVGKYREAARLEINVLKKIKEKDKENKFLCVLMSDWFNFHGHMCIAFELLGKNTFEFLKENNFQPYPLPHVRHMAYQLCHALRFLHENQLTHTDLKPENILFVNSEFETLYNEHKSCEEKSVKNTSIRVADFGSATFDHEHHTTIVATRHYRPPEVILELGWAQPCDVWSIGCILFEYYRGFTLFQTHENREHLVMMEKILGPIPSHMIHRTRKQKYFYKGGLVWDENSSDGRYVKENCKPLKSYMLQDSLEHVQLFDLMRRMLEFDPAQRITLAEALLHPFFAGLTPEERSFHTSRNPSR
Method for CLK3 kinase: This is a non-radioactive assay using fluorescence resonance energy transfer (FRET) between coumarin and fluorescein to detect kinase activity which is represented as a ratio of coumarin emission/fluorescein emission.
The mixture was allowed to incubate with the representative compounds for one hour at room temperature. All reactions were performed in duplicate. Unphosphorylated (“0% Control”) and phosphorylated (“100% control”) forms of Ser/Thr 18 served as control reactions. Additionally, an 11-point dose-response curve of Staurosporine (1 μM top) was run to serve as a positive compound control.
After incubation, Development Reagent A was diluted in Development Buffer then added to the reaction and allowed to further incubate for one hour at room temperature.
Dose-response curves were generated and inhibitory concentration (IC50) values were calculated using non-linear regression curve fit in the Dotmatics' Studies Software (Bishops Stortford, UK).

For `COc1ccc(NC(=O)c2n[nH]c3ccc(-c4cncc(CN5CCCC5)c4)cc23)cn1` [compound 71], the EC50 on CLK2 kinase came out at 2 nM; on CLK3 kinase it was 109 nM; in assay [1] it was 50 nM; in assay [2], 30 nM. Moreover, the Emax in assay [2] is 63.1%.
On to `CCC(=O)Nc1cncc(-c2cc3c(-c4cc5c(N6CCN(C)CC6)nccc5[nH]4)n[nH]c3cn2)c1` [compound 473], for which the EC50 is 3 nM at CLK2 kinase, 285 nM at CLK3 kinase, more than 10000 nM in assay [1] and 30 nM in assay [2]. Further, in assay [2], the Emax amounted to 70%.
For the compound `CC(C)CC(=O)Nc1cncc(-c2cc3c(-c4cc5c(-c6cc(F)cc(CNS(C)(=O)=O)c6)cncc5[nH]4)n[nH]c3cn2)c1` [compound 524], the EC50 is 15 nM on CLK2 kinase, 198 nM at CLK3 kinase and more than 10000 nM in assay [1]. For the same compound, the Emax in assay [2] is 24.2%.
Regarding `c1cc(-c2ccoc2)c2cc(-c3n[nH]c4ccc(-c5cncc(CNCC6CCCC6)c5)nc34)[nH]c2c1` [compound 502], the EC50 at CLK2 kinase came out at 14 nM; at CLK3 kinase, 336 nM; in assay [1], 3640 nM. Also, the Emax in assay [2] turned out to be 25.3%.
Regarding `CCCCC(=O)Nc1cncc(-c2ccc3[nH]nc(-c4nc5c(-c6ccoc6)cncc5[nH]4)c3n2)c1` [compound 231], the EC50 at CLK2 kinase was 3 nM; at CLK3 kinase, 361 nM; in assay [1], more than 10000 nM; in assay [2], 10 nM. In addition, the Emax in assay [2] was 73.6%.
As to `CN(C)CCNc1cc(F)cc(-c2cncc3[nH]c(-c4n[nH]c5ncc(-c6cccnc6)cc45)nc23)c1` [compound 278], the EC50 at CLK2 kinase was determined as 5 nM; on CLK3 kinase, 36 nM; in assay [1] it was 21 nM; in assay [2] it was 300 nM. For the same compound, in assay [2], the Emax is 129%.
Consider `CC(C)CC(=O)Nc1cncc(-c2ccc3[nH]nc(-c4cc5c(-c6ccncc6)cncc5[nH]4)c3c2)c1` [compound 388], for which the figures for the EC50 (at CLK2 kinase; on CLK3 kinase; in assay [1]) were 4 nM, 29 nM and 875 nM, respectively. In addition, the Emax in assay [2] came to 70.2%.
Regarding `CC(C)Nc1cncc(-c2ccc3[nH]nc(-c4nc5c(-c6ccoc6)cncc5[nH]4)c3n2)c1` [compound 239], the EC50 was found to be 2 nM at CLK2 kinase, 87 nM at CLK3 kinase, 597 nM in assay [1] and 30 nM in assay [2]. In addition, the Emax in assay [2] turned out to be 75.3%.
`Nc1cncc(-c2ccc3[nH]nc(-c4cc5c(-c6ccncc6)ccnc5[nH]4)c3n2)c1` [compound 382]: the EC50 at CLK2 kinase was 4 nM; on CLK3 kinase, 63 nM; in assay [1], more than 10000 nM. Besides, in assay [2], the Emax was determined as 26.9%.
Consider `Cc1ccncc1-c1cc2c(-c3nc4c(-c5cc(F)cc(CNS(C)(=O)=O)c5)cccc4[nH]3)n[nH]c2cn1` [compound 288], for which the EC50 was found to be 11 nM at CLK2 kinase, 37 nM at CLK3 kinase, 30.4 nM in assay [1] and 30 nM in assay [2]. The Emax in assay [2] was found to be 81.8%.
On to `FC1(F)CCN(Cc2cncc(-c3cnc4[nH]nc(-c5cc6c(-c7ccncc7)cncc6[nH]5)c4c3)c2)C1` [compound 402], for which the EC50 at CLK2 kinase was determined as 5 nM; on CLK3 kinase, 110 nM; in assay [1], 1510 nM. In addition, the Emax in assay [2] was found to be 36.5%.
For `Cc1ccncc1-c1ccc2[nH]nc(-c3cc4ccncc4[nH]3)c2c1` [compound 415], the EC50 turned out to be 1 nM on CLK2 kinase, 31 nM on CLK3 kinase and 191 nM in assay [1]. Also, the Emax in assay [2] is 161%.
Taken in the same sequence, the figures for `Fc1cccc(-c2nccc3[nH]c(-c4n[nH]c5ccc(-c6cccnc6)nc45)cc23)c1` [compound 301] were 8 nM, 105 nM, 1350 nM and 44.8%.
In the case of `CC(C)CC(=O)Nc1cncc(-c2ccc3[nH]nc(-c4cc5c(-c6ccccc6F)nccc5[nH]4)c3n2)c1` [compound 326], the EC50 is 10 nM at CLK2 kinase, 144 nM at CLK3 kinase and 605 nM in assay [1]. For the same compound, in assay [2], the Emax came out at 36.3%.
